Experimental data as given in patent US20230066315A1, “COMPOUNDS AND USES THEREOF” (Nuvation Bio Inc., priority 2019, published 2023).
pIC50: −log10 of the molar value.

Legend:
[1] = target: T1, adenosine A2a (human) membrane (Homo sapiens, UniProt P29274); assay: A2A adenosine receptor radioligand binding assay ([3H] CGS-21680); conditions: radioligand [3H] CGS-21680 6 nM, RT 2 hours
T1 construct: purchased PerkinElmer RBHA2AM400UA
Method: A second A2A adenosine receptor radioligand binding assay protocol was used. The protocol used adenosine A2a (human) membrane (PerkinElmer RBHA2AM400UA) at a concentration of […]/well/100 μl and the radioligand [3H] CGS-21680 (Cat No. PerkinElmer-NET1021250UC) at a final concentration of 6 nM. Testing compounds were diluted with DMSO to make 8-point 4-fold serial dilution, starting at 0.2 mM. CGS-15943 was the reference compound. 1 μl of compounds/high control/low control was transferred to the assay plate according to a plate map, followed by 100 μl of membrane stocks and 100 μl of radioligand, in assay buffer (50 mM Tris-HCl, 10 mM MgCl2, 1 mM EDTA, pH 7.4). The plate was sealed and incubated at RT for 2 hours. Unifilter-96 GF/C filter plates (Perkin Elmer Cat #6005174) were soaked with 50 μl of 0.3% PEI per well for at least 0.5 hour at room temperature. When the binding assays were completed, the reaction mixtures were filtered through GF/C plates using Perkin Elmer Filtermate Harvester, and each plate washed 4 times with cold wash buffer (50 mM Tris-HCl, 154 mM NaCl, pH 7.4). The filter plates were dried for 1 hour at 50 degrees. After drying, the bottom of the filter plate wells was sealed, 50 μl of Perkin Elmer Microscint 20 cocktail was added, and the top of the filter plate was sealed. ^3H trapped on the filter was counted using Perkin Elmer MicroBeta2 Reader. The data were analyzed with GraphPad Prism 5 to obtain binding IC50 values. The “Inhibition [% Control]” was calculated using the equation: % Inh=(1−Background subtracted Assay value/Background subtracted HC value)*100, where HC is high control.

[2] = target: T2, human recombinant adenosine A2A receptor (Homo sapiens, UniProt P29274); assay: cAMP assay (Assay 2) in HEK-293 cells expressing A2A receptor; assay type: cell-based; conditions: HEK-293 cells expressing human recombinant adenosine A2A receptor; reducing A2A cAMP levels
T2 construct: expressed in transfected cells; host or cells: HEK-293
Method: The functional activity of compound 1.5 was tested using Assay 2 below, to detect the presence of cAMP. Assay 1 is an alternative assay for this purpose. Activation of G-protein coupled receptors (such as A2A) results in activation of adenylyl cyclase which converts ATP into cAMP which is used as a downstream signaling molecule. Molecules which act as GPCR (or specifically A2A receptor) antagonists cause a decrease in intracellular cAMP concentration.
Assay 2 (Table B2): This assay used HEK-293 cells expressing human recombinant adenosine A2A receptor that were grown prior to the test in media without antibiotic. 100 nL of test articles at 100× of final concentration were transferred to assay plate by Echo. Cells were washed twice with 5 mL of PBS and 10 pL of cells were mixed with 5 mL PBS. After aspirating the PBS and adding 1.5 mL versine, cells were incubated at 37° C. for 2-5 min. After centrifugation, 4 mL of medium was added and adjusted cell density to 5,000 cells/well with Stimulation Buffer. 10 pL of cells were aliquoted to the assay plate, centrifuged at 1000 rpm for 1 minute, and incubated for 60 minutes at room temperature. 5 pL 4× Eu-cAMP tracer solution and 5 pL 4× Ulight™-anti-cAMP solution were added to assay plate, followed by centrifugation and 60-minute incubation at room temperature. Plates were read on EnVision. […]

T1 sequence (P29274 whole entry): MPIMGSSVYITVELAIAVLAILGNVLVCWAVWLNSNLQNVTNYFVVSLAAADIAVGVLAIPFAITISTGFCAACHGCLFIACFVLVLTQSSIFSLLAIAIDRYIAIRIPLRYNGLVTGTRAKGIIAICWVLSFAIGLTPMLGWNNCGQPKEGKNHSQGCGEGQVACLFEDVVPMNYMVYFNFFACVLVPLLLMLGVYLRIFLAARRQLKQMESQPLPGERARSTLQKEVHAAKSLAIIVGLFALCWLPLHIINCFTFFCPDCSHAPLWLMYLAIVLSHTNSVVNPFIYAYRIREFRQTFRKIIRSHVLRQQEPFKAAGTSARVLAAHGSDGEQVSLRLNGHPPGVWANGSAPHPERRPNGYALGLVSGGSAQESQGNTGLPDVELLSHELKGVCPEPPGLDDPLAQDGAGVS
T2 sequence (P29274 whole entry): as above

| pIC50 [1] | pIC50 [2] | Structure (SMILES) |
| --- | --- | --- |
| 8.26 |  | O=c1ccc2nc(-c3ccc4ncccc4c3)c(-c3ccccc3)nc2[nH]1 [Compound 1.4, 3-phenyl-2-(quinolin-6-yl)pyrido[2,3-b]pyrazin-6(5H)-one] |
| 7.74 | 6.49 | O=c1cc[nH]c2nc(-c3ccccc3)c(-c3ccc4ncccc4c3)nc12 [Compound 1.5, 3-phenyl-2-(quinolin-6-yl)pyrido[2,3-b]pyrazin-8(5H)-one] |
| 6.02 |  | Cn1ccc(=O)c2nc(-c3ccc4ncccc4c3)c(-c3ccccc3)nc21 [Compound 1.8, 5-methyl-3-phenyl-2-(quinolin-6-yl)pyrido[2,3-b]pyrazin-8(5H)-one] |
| 8.18 |  | O=c1ccc2nc(-c3cc(Cl)c4ncccc4c3)c(-c3ccccc3)nc2[nH]1 [Compound 1.12, 2-(8-chloroquinolin-6-yl)-3-phenylpyrido[2,3-b]pyrazin-6(5H)-one] |
